The values below come from US20260364030A1, “NOVEL SELECTIVE INHIBITORS OF LYSYL OXIDASES” (Syntara Limited, priority 2022, published 2026).

Structures are written as SMILES. Where two headings read alike, the source gives them in different places.

Broadly, the IC50 is the concentration needed to halve the response being measured.

Experiment [1] has as its system massive, pedunculated keloids. Particulars: cited from earlier work.
The next experiment concerns the target T1, Bovine LOX (Bos taurus, UniProt P33072).
T1 sequence (P33072 170-418): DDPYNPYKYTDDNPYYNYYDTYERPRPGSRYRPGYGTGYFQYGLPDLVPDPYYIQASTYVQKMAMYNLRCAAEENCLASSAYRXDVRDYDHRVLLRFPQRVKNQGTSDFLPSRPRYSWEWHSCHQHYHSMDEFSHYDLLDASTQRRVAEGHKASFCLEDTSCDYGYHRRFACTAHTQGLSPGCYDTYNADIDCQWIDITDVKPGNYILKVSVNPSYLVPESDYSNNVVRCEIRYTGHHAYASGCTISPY
Kind of experiment: LOX inhibition, hydrogen peroxide Amplex Red oxidation assay. As to conditions: 2 h incubation with enzyme at 37 °C. The experiment is classed as biochemical. On the procedure: (§1) LOX and LOXL protein family members can be acquired as recombinant active proteins from commercial sources, or extracted from animal tissues like bovine aorta, tendons, pig skin; or prepared from cell cultures. The inhibitory effects of the compounds of the present invention were tested against the given LOX or LOXL preparation using a method based on the detection of hydrogen peroxide with an Amplex Red oxidation assay [Zhou et al, 1997]. The assay was developed using either 384 or 96 well format. Briefly, in a standard black, clear bottom 384 well plate assay 25 µL of a dilution of any of the isoenzymes and orthologues in 1.2 M urea, 50 mM sodium borate buffer (pH 8.2) were added into each well in the presence of […] and 0.5 mM pargyline (to inhibit SSAO and MAO-B and MAO-A, respectively; not necessary if the enzyme is from a recombinant or purified form). […] of a reaction mixture containing twice the KM concentration of putrescine (Sigma Aldrich, e.g. 20 mM for LOX and LOXL1 or 10 mM for LOXL2 and 4 mM for LOXL3 and LOXL4), 120 µM Amplex Red (Thermo Fisher Scientific) and 1.5 U/mL horseradish peroxidase (Sigma Aldrich) prepared in 1.2 M urea, 50 mM sodium borate buffer (pH 8.2) were then added to the corresponding wells. The above volumes were doubled in the case of 96 wells plate. The fluorescence (RFU) was read every 2.5 min for 30 min at 37 °C, excitation 544 nm and emission 590 (Optima; BMG labtech). The slope/min of the kinetics for each well was calculated using MARS data analysis software (BMG labtech) and this value was used to deduce the IC50 value (Dotmatics). The ability of the inventive compounds to inhibit the amine oxidase activity of LOX and other family members is shown in Table 5.

For another experiment, the target named is T2, LOXL2 (Homo sapiens, UniProt Q9Y4K0).
T2 sequence (Q9Y4K0 26-774): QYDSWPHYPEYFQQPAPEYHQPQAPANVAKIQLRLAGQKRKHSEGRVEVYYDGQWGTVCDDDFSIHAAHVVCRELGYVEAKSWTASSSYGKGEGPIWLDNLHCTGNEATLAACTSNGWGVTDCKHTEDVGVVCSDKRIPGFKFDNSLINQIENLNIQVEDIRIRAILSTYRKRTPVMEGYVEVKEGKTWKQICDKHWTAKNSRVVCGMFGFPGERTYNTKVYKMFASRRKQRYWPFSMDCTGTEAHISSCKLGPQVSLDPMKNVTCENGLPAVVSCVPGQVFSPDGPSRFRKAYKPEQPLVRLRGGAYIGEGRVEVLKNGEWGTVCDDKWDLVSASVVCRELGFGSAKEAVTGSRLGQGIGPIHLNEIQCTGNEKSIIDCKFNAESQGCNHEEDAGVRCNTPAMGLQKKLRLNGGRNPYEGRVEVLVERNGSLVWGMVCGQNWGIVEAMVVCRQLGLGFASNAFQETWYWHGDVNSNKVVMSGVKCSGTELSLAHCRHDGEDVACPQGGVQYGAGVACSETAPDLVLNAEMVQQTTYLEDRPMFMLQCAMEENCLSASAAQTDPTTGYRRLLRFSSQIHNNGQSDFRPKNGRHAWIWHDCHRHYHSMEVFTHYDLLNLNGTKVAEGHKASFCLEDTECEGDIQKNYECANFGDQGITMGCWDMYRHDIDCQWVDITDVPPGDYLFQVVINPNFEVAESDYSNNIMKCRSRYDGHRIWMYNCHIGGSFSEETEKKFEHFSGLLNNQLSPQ
As to the kind of experiment: LOXL2 inhibition, Amplex Red oxidation assay. Type of experiment: biochemical. Particulars: 2 h incubation with enzyme at 37 °C; read-out: Human LOXL2 Activity IC50. On the procedure:
as §1

The subject of experiment [2] is breast cancer model (MMTV-PyMT). Particulars: cited from earlier work.

As for `COc1cc2c(c(OC)c1OC)-c1ccc(OC)c(=O)cc1[C@@H](NC(C)=O)CC2` [colchicine], in experiment [1] (human, in vivo), the “Effect on surface scarring” value is reported as “measurable beneficial effect on surface scarring”.
Turning to `CC(C)c1cccc(S(=O)(=O)C/C(=C/F)CN)c1` [Compound 11, (E)-3-fluoro-2-(((3-isopropylphenyl)sulfonyl)methyl)prop-2-en-1-amine], the IC50 against Bovine LOX and at LOXL2 was less than 2000 nM in each case.
For `NC/C(=C\F)CS(=O)(=O)c1cc(Cl)ccc1Cl` [Compound 32, (E)-2-(((2,5-dichlorophenyl)sulfonyl)methyl)-3-fluoroprop-2-en-1-amine], the IC50 on Bovine LOX and at LOXL2 was less than 2000 nM in each case.
For the compound `CC(C)(S)[C@@H](N)C(=O)O` [penicillamine], the “Effect on surface scarring” value in experiment [1] (BAPN or penicillamine, and colchicine, following excision of keloid and grafting) was “measurable beneficial effect on surface scarring”.
As for `NC/C(=C\F)CS(=O)(=O)c1cccc(Cl)c1` [Compound 19, (E)-2-(((3-chlorophenyl)sulfonyl)methyl)-3-fluoroprop-2-en-1-amine], the IC50 against Bovine LOX and at LOXL2 was less than 2000 nM throughout.
As to `COc1cccc(S(=O)(=O)C/C(=C/F)CN)c1` [Compound 24, (E)-3-fluoro-2-(((3-methoxyphenyl)sulfonyl)methyl)prop-2-en-1-amine], the IC50 against Bovine LOX and on LOXL2 was less than 2000 nM throughout.
As for `NC/C(=C\F)CS(=O)(=O)c1cccc(-c2nccs2)c1` [Compound 16, (E)-3-fluoro-2-(((3-(thiazol-2-yl)phenyl)sulfonyl)methyl)prop-2-en-1-amine], the IC50 against Bovine LOX and on LOXL2 was less than 2000 nM in each case.
Consider `CS(=O)(=O)c1cc(-c2ccccc2)cc(S(=O)(=O)c2ccc(CN)s2)c1` [CCT365623], for which the Metastasis and survival result in experiment [2] is “reduce metastasis and increase survival”.
Turning to `NC/C(=C\F)CS(=O)(=O)c1cccc(F)c1` [Compound 5, (E)-3-fluoro-2-(((3-fluorophenyl)sulfonyl)methyl)prop-2-en-1-amine], the IC50 at Bovine LOX and on LOXL2 was less than 2000 nM in each case.
Take `Cc1cccc(S(=O)(=O)C/C(=C/F)CN)c1` [Compound 20, (E)-3-fluoro-2-((m-tolylsulfonyl)methyl)prop-2-en-1-amine]: the IC50 against Bovine LOX and at LOXL2 was less than 2000 nM throughout.
